Data as given in ChEMBL document CHEMBL3885861, “Open TG-GATES”.

Species: Rattus norvegicus
Assay: Open TG-GATES - Regimen: Single
Format: toxicity, organism-based, Sprague-Dawley
Set-up: regimen Single, gender Male, age 6 weeks
Settings: in vivo, po, 0 mg/kg, route gavage, dose level Control; for APTT / Bas / Eos / Fbg / Hb / Ht / Lym / MCH / MCHC / MCV / Mono / Neu / PT / Plat / RBC / Ret / WBC: tissue Blood; for KIDNEY_L / KIDNEY_R / KIDNEY_TOTAL: tissue Kidney; for LIVER: tissue Liver; for A/G / ALP / ALT / AST / BUN / CRE / Ca / Cl / DBIL / GLC / IP / K / LDH / Na / PL / RALB / TBIL / TC / TG / TP / gamma-GTP: tissue Plasma

SMILES: Nc1c2c(nc3ccccc13)CCCC2 [TACRINE]
- TERMINAL_BW (3 h): 206.5 g
- APTT (3 h): 19.7 s
- Bas (3 h): 0%
- Eos (3 h): 0.8%
- Fbg (3 h): 293.2 mg/dL
- Hb (3 h): 13 g/dL
- Ht (3 h): 37.9%
- Lym (3 h): 81.6%
- MCH (3 h): 21.2 pg
- MCHC (3 h): 34.2%
- MCV (3 h): 61.7 fL
- Mono (3 h): 2%
- Neu (3 h): 15%
- PT (3 h): 16.3 s
- Plat (3 h): 114.9 x10_4/uL
- RBC (3 h): 614.4 x10_4/ul
- Ret (3 h): 7.9%
- WBC (3 h): 97 x10_2/uL
- KIDNEY_L (3 h): 0.9 g
- KIDNEY_R (3 h): 0.9 g
- KIDNEY_TOTAL (3 h): 1.8 g
- LIVER (3 h): 9.3 g
- A/G (3 h): 1.2
- ALP (3 h): 1417 IU/L
- ALT (3 h): 39.6 IU/L
- AST (3 h): 77.8 IU/L
- BUN (3 h): 13 mg/dL
- CRE (3 h): 0.2 mg/dL
- Ca (3 h): 10.6 mg/dL
- Cl (3 h): 106.8 meq/L
- DBIL (3 h): 0.002 mg/dL
- GLC (3 h): 189.6 mg/dL
- IP (3 h): 7.9 mg/dL
- K (3 h): 3.9 meq/L
- LDH (3 h): 229 IU/L
- Na (3 h): 142.6 meq/L
- PL (3 h): 131.4 mg/dL
- RALB (3 h): 3 g/dL
- TBIL (3 h): 0.018 mg/dL
- TC (3 h): 73.2 mg/dL
- TG (3 h): 60 mg/dL
- TP (3 h): 5.4 g/dL
- gamma-GTP (3 h): 1.2 IU/L
- TERMINAL_BW (6 h): 208.7 g
- APTT (6 h): 21.4 s
- Bas (6 h): 0%
- Eos (6 h): 0.8%
- Fbg (6 h): 310.4 mg/dL
- Hb (6 h): 13.3 g/dL
- Ht (6 h): 38.6%
- Lym (6 h): 80.2%
- MCH (6 h): 21.1 pg
- MCHC (6 h): 34.5%
- MCV (6 h): 61.1 fL
- Mono (6 h): 2.6%
- Neu (6 h): 16%
- PT (6 h): 16.1 s
- Plat (6 h): 115.4 x10_4/uL
- RBC (6 h): 632.2 x10_4/ul
- Ret (6 h): 7.7%
- WBC (6 h): 96.6 x10_2/uL
- KIDNEY_L (6 h): 0.9 g
- KIDNEY_R (6 h): 0.9 g
- KIDNEY_TOTAL (6 h): 1.9 g
- LIVER (6 h): 9 g
- A/G (6 h): 1.2
- ALP (6 h): 1333 IU/L
- ALT (6 h): 38.4 IU/L
- AST (6 h): 74.6 IU/L
- BUN (6 h): 10.8 mg/dL
- CRE (6 h): 0.2 mg/dL
- Ca (6 h): 10.6 mg/dL
- Cl (6 h): 106.8 meq/L
- DBIL (6 h): 0 mg/dL
- GLC (6 h): 176.6 mg/dL
- IP (6 h): 9.2 mg/dL
- K (6 h): 4.6 meq/L
- LDH (6 h): 252.4 IU/L
- Na (6 h): 142 meq/L
- PL (6 h): 137.4 mg/dL
- RALB (6 h): 2.9 g/dL
- TBIL (6 h): 0.016 mg/dL
- TC (6 h): 79.4 mg/dL
- TG (6 h): 82 mg/dL
- TP (6 h): 5.4 g/dL
- gamma-GTP (6 h): 1.2 IU/L
- TERMINAL_BW (9 h): 205.8 g
- APTT (9 h): 19.8 s
- Bas (9 h): 0%
- Eos (9 h): 1%
- Fbg (9 h): 285.8 mg/dL
- Hb (9 h): 13.2 g/dL
- Ht (9 h): 38.4%
- Lym (9 h): 81.6%
- MCH (9 h): 21.1 pg
- MCHC (9 h): 34.2%
- MCV (9 h): 61.5 fL
- Mono (9 h): 2%
- Neu (9 h): 15%
- PT (9 h): 16 s
- Plat (9 h): 120 x10_4/uL
- RBC (9 h): 624.8 x10_4/ul
- Ret (9 h): 8.6%
- WBC (9 h): 84.5 x10_2/uL
- KIDNEY_L (9 h): 0.9 g
- KIDNEY_R (9 h): 0.9 g
- KIDNEY_TOTAL (9 h): 1.8 g
- LIVER (9 h): 8.8 g
- A/G (9 h): 1.3
- ALP (9 h): 1213.6 IU/L
- ALT (9 h): 34 IU/L
- AST (9 h): 72.6 IU/L
- BUN (9 h): 12.6 mg/dL
- CRE (9 h): 0.2 mg/dL
- Ca (9 h): 10.4 mg/dL
- Cl (9 h): 107 meq/L
- DBIL (9 h): 0 mg/dL
- GLC (9 h): 185.6 mg/dL
- IP (9 h): 9.9 mg/dL
- K (9 h): 4.2 meq/L
- LDH (9 h): 230.8 IU/L
- Na (9 h): 142 meq/L
- PL (9 h): 139 mg/dL
- RALB (9 h): 3 g/dL
- TBIL (9 h): 0.022 mg/dL
- TC (9 h): 75.8 mg/dL
- TG (9 h): 60.8 mg/dL
- TP (9 h): 5.4 g/dL
- gamma-GTP (9 h): 1 IU/L
- TERMINAL_BW (24 h): 214.7 g
- APTT (24 h): 20.5 s
- Bas (24 h): 0%
- Eos (24 h): 0.8%
- Fbg (24 h): 295.8 mg/dL
- Hb (24 h): 13.4 g/dL
- Ht (24 h): 38.7%
- Lym (24 h): 83%
- MCH (24 h): 21.5 pg
- MCHC (24 h): 34.8%
- MCV (24 h): 61.9 fL
- Mono (24 h): 3%
- Neu (24 h): 12.4%
- PT (24 h): 16.3 s
- Plat (24 h): 126.5 x10_4/uL
- RBC (24 h): 626.2 x10_4/ul
- Ret (24 h): 7.3%
- WBC (24 h): 106.1 x10_2/uL
- KIDNEY_L (24 h): 0.9 g
- KIDNEY_R (24 h): 1 g
- KIDNEY_TOTAL (24 h): 1.9 g
- LIVER (24 h): 10 g
- A/G (24 h): 1.3
- ALP (24 h): 1572.4 IU/L
- ALT (24 h): 43 IU/L
- AST (24 h): 74.4 IU/L
- BUN (24 h): 18.8 mg/dL
- CRE (24 h): 0.2 mg/dL
- Ca (24 h): 10.8 mg/dL
- Cl (24 h): 106.8 meq/L
- DBIL (24 h): 0.008 mg/dL
- GLC (24 h): 191.6 mg/dL
- IP (24 h): 7.3 mg/dL
- K (24 h): 4.6 meq/L
- LDH (24 h): 300.2 IU/L
- Na (24 h): 141.4 meq/L
- PL (24 h): 154.2 mg/dL
- RALB (24 h): 3.1 g/dL
- TBIL (24 h): 0.032 mg/dL
- TC (24 h): 79.8 mg/dL
- TG (24 h): 103 mg/dL
- TP (24 h): 5.4 g/dL
- gamma-GTP (24 h): 1 IU/L
